Earlier results as cited in US7713983B2 (priority 2003, dated 2010).

Legend:
neuropathic pain = conditions: in vivo
NaV1.3 = NaV1.3 (Homo sapiens, UniProt Q9NY46); conditions: read-out: TTX IC50
Chain of NaV1.3 (Q9NY46 whole entry, looked up): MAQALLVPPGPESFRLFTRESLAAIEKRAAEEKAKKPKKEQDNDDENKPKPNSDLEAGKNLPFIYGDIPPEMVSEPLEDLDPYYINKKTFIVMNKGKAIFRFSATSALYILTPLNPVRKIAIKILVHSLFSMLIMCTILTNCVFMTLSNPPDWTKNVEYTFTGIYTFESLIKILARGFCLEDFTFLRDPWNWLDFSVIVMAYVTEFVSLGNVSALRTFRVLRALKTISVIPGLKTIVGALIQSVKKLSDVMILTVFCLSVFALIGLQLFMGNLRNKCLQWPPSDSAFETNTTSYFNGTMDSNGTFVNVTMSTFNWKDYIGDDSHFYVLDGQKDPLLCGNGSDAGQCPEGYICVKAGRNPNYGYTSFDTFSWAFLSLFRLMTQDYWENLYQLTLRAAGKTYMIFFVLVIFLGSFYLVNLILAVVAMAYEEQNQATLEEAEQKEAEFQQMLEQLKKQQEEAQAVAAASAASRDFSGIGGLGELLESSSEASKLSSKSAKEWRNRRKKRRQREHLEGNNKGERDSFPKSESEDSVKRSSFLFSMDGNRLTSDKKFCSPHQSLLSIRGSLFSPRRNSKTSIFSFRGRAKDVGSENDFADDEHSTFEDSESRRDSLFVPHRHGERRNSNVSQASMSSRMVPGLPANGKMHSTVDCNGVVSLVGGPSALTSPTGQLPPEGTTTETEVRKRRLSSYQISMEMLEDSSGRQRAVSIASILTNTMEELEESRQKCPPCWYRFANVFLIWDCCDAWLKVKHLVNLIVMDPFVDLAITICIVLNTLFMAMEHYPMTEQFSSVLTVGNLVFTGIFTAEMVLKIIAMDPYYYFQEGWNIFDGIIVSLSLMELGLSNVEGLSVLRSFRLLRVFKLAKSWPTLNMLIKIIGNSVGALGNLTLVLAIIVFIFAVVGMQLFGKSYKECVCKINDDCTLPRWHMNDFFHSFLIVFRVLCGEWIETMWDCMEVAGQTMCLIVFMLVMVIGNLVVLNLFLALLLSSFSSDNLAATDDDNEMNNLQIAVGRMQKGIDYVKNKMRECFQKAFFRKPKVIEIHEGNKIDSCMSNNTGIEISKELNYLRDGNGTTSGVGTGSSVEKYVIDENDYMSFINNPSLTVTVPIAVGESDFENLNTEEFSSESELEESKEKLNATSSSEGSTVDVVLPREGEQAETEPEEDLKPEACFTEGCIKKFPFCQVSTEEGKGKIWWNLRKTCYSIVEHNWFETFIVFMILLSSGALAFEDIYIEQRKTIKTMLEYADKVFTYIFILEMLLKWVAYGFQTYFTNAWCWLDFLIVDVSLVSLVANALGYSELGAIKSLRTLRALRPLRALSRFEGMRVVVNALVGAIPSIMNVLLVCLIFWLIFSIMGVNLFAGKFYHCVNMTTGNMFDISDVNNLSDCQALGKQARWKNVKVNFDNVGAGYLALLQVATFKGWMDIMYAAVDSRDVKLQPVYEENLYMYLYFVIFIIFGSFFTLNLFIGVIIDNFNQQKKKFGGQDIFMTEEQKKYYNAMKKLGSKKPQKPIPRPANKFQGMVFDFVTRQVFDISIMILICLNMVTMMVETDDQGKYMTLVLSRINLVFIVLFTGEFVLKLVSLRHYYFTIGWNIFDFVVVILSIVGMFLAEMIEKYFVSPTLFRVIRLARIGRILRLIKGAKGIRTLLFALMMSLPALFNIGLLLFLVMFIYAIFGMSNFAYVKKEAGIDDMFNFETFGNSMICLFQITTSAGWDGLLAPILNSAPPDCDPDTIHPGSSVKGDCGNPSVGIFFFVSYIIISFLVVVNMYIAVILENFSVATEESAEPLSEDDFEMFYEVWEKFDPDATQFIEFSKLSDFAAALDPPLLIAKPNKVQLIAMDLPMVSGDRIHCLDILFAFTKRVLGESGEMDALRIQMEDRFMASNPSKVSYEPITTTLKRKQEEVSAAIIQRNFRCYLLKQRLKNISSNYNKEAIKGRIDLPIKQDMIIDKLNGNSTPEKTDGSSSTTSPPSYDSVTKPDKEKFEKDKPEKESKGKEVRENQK

Compound	share of patients in whom it works (neuropathic pain)	IC50 (NaV1.3)
NCC1(CC(=O)O)CCCCC1 [Gabapentin]	60%	–
NC1=N[C@H](O)[C@H]2[C@H]3O[C@]4(O)O[C@@H]([C@@H](O)[C@@]2(N1)[C@@H]4O)[C@]3(O)CO [TTX, tetrodotoxin]	–	0.015 µM
